Read-outs that look alike come from different tables or passages of the source.
What was measured:
[1] = system: Smn protein; test: Smn protein assay in cultured cells (SMN HTRF); format: cell-based, human; details: 48 hours; for EC1.5x (concentration giving 1.5-fold Smn protein increase): SMA Type 1 patient fibroblast cells (GM03813), 7-point concentration curve, SMN HTRF, concentration producing 1.5 times Smn protein vs DMSO vehicle control, read-out: EC1.5x for Smn protein expression; for maximum fold (Fold) increase of Smn protein: SMA patient fibroblast cells, 7-point concentration data, fold increase relative to vehicle control (SMN HTRF)
Summary of the method: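 Smn in SMA fibroblast lysates, measured by anti-SMN HTRF after 48 h compound exposure; EC1.5x from fold change over vehicle.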

[2] = system: SMN2 minigene (full length SMN2 minigene mRNA containing SMN2 exon 7); test: SMN2 minigene mRNA splicing RT-qPCR assay in cultured cells; format: cell-based, human; details: Homo sapiens, HEK293-H, read-out: EC1.5x for production of full length SMN2 mRNA
Summary of the method: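 Full-length SMN2 minigene mRNA (exon 7 included), minigene-specific and not endogenous SMN, quantified by RT-qPCR multiplexed with GAPDH in stably transfected HEK293H cells after 24 h compound exposure at 37° C. Abundance from efficiency-corrected Ct, normalized to GAPDH and vehicle; EC1.5x reported as star bins.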

[3] = HEK293H cells stably transfected with SMN2-A minigene, 24 hours, 7-point concentration curve, 1.5-fold relative to vehicle-treated cells

Row | SMILES | EC1.5x (concentration giving 1.5-fold Smn protein increase) [1] [nM] | maximum fold (Fold) increase of Smn protein [1] | melting point [°C] | EC (1.5-fold) [2, 3] [µM] | EC (1.5-fold) ([2]; 24 h) [µM]
1 | CCN1CCN(c2ccc3cc(-c4cn5cc(C)nc(C)c5n4)c(=O)oc3c2)CC1 [Compound 621, 3-(6,8-dimethylimidazo[1,2-a]pyrazin-2-yl)-7-(4-ethylpiperazin-1-yl)-2H-chromen-2-one] | < 300 | ***** (fold increase >1.65) | 215 to 217 | < 0.1 | 
2 | Cc1cn2cc(-c3cc4ccc(CCCN(C)C)cc4oc3=O)ccc2n1 [Cpd 908, 7-[3-(dimethylamino)propyl]-3-(2-methylimidazo[1,2-a]pyridin-6-yl)-2H-chromen-2-one] | 300 to 1000 | ***** (fold increase >1.65) | 176 to 178 | 0.1 to 0.3 | 
3 | COc1ccc(-c2cc3c(F)cc(N4CCN[C@H](C)C4)cc3oc2=O)cc1OC [Compound 416, 3-(3,4-dimethoxyphenyl)-5-fluoro-7-[(3R)-3-methylpiperazin-1-yl]-2H-chromen-2-one] |  | ** (fold increase between >1.2 and ≤1.35) | 115 to 117 | 1 to 3 | 
4 | Cc1cn2cc(-c3cc4c(F)cc(N5CCCNCC5)cc4oc3=O)nc2cn1 [Compound 550, 7-(1,4-diazepan-1-yl)-5-fluoro-3-(6-methylimidazo[1,2-a]pyrazin-2-yl)-2H-chromen-2-one] | < 300 | **** (fold increase between >1.5 and ≤1.65) | 270 to 274 | < 0.1 | 
5 | C[C@H]1CN(c2ccc3cc(-c4ccc(F)cc4Cl)c(=O)oc3c2)CCN1 [Compound 510, 3-(2-chloro-4-fluorophenyl)-7-[(3S)-3-methylpiperazin-1-yl]-2H-chromen-2-one] |  | * (maximum fold increase of ≤1.2) | 109 to 111 | 3 to 30 | 
6 | CN1CCN(c2ccc3cc(-c4cn5cc(F)cc(F)c5n4)c(=O)oc3c2)CC1 [Compound 522, 3-(6,8-difluoroimidazo[1,2-a]pyridin-2-yl)-7-(4-methylpiperazin-1-yl)-2H-chromen-2-one] |  | * (maximum fold increase of ≤1.2) | 232 to 238 | 0.3 to 1 | 
7 | Cc1cn2cc(-c3cc4ccc(O[C@@H]5CCN(C)C5)cc4oc3=O)nc2c(C)n1 [Compound 889, 3-(6,8-dimethylimidazo[1,2-a]pyrazin-2-yl)-7-{[(3R)-1-methylpyrrolidin-3-yl]oxy}-2H-chromen-2-one] | < 300 | ***** (fold increase >1.65) | 195 to 202 | < 0.1 | 
8 | Cc1cc(F)c2nc(-c3cc4ccc(N5CC6CCC(C5)N6C)cc4oc3=O)cn2c1 [Compound 613, 3-(8-fluoro-6-methylimidazo[1,2-a]pyridin-2-yl)-7-(8-methyl-3,8-diazabicyclo[3.2.1]oct-3-yl)-2H-chromen-2-one] |  | ** (fold increase between >1.2 and ≤1.35) | 267 to 274 |  | 0.3 to 1
9 | C[C@@H]1CN(c2ccc3cc(-c4cc5ccccn5c4)c(=O)oc3c2)C[C@H](C)N1 [Compound 553, 7-[(3R,5S)-3,5-dimethylpiperazin-1-yl]-3-(indolizin-2-yl)-2H-chromen-2-one] |  | * (maximum fold increase of ≤1.2) | 164 to 167 | 0.3 to 1 | 
10 | Cc1cn2cc(-c3cc4ccc(C5CCN(CC(C)C)CC5)cc4oc3=O)nc2c(C)n1 [Compound 914, 3-(6,8-dimethylimidazo[1,2-a]pyrazin-2-yl)-7-[1-(2-methylpropyl)piperidin-4-yl]-2H-chromen-2-one] | < 300 | **** (fold increase between >1.5 and ≤1.65) | 191 to 198 | < 0.1 | 
11 | Cc1cn2cc(-c3cc4ccc(N5C[C@H]6CCCN(CCO)[C@H]6C5)cc4oc3=O)nc2c(C)n1 [Compound 785, 3-(6,8-dimethylimidazo[1,2-a]pyrazin-2-yl)-7-[(4aR,7aR)-1-(2-hydroxyethyl)octahydro-6H-pyrrolo[3,4-b]pyridin-6-yl]-2H-chromen-2-one] | 1000 to 3000 | **** (fold increase between >1.5 and ≤1.65) | 207 to 217 | < 0.1 | 
12 | Cc1cn2cc(-c3cc4ccc(OC5CCN(C)CC5)cc4oc3=O)nc2c(C)n1 [Compound 867, 3-(6,8-dimethylimidazo[1,2-a]pyrazin-2-yl)-7-[(1-methylpiperidin-4-yl)oxy]-2H-chromen-2-one] | < 300 | **** (fold increase between >1.5 and ≤1.65) | 165 to 168 | < 0.1 | 
13 | Cc1cc2cc(-c3cc4ccc(N5CCN(C)[C@H](C)C5)cc4oc3=O)oc2c(C)n1 [Compound 807, 3-(5,7-dimethylfuro[2,3-c]pyridin-2-yl)-7-[(3R)-3,4-dimethylpiperazin-1-yl]-2H-chromen-2-one] | < 300 | ***** (fold increase >1.65) | 199 to 204 | < 0.1 | 
14 | Cl.O=c1oc2cc(N3CCNCC3)ccc2cc1-c1nc2c(Cl)cccc2o1 [Compound 70, 3-(4-chloro-1,3-benzoxazol-2-yl)-7-(piperazin-1-yl)-2H-chromen-2-one hydrochloride] |  | * (maximum fold increase of ≤1.2) | 278 to 282 | 0.3 to 1 | 
15 | COc1ccc(-c2cc3ccc(N4CCN[C@@H](C)C4)cc3oc2=O)c(OC)c1 [Compound 467, 3-(2,4-dimethoxyphenyl)-7-[(3S)-3-methylpiperazin-1-yl]-2H-chromen-2-one] |  | * (maximum fold increase of ≤1.2) | 103 to 105 | 3 to 30 | 
16 | Cc1ccn2nc(-c3cc4ccc(N5CCNCC5)cc4oc3=O)cc2c1 [Compound 302, 3-(5-methylpyrazolo[1,5-a]pyridin-2-yl)-7-(piperazin-1-yl)-2H-chromen-2-one] | 300 to 1000 | *** (fold increase between >1.35 and ≤1.5) | 228 to 231 | 0.1 to 0.3 | 
17 | Cc1cn2cc(-c3cc4ccc(CCNC(CO)CO)cc4oc3=O)nc2c(C)n1 [Compound 873, 7-{2-[(1,3-dihydroxypropan-2-yl)amino]ethyl}-3-(6,8-dimethylimidazo[1,2-a]pyrazin-2-yl)-2H-chromen-2-one] | 300 to 1000 | **** (fold increase between >1.5 and ≤1.65) | 217 to 221 | < 0.1 | 
18 | CCN(CC)CCOc1ccc2cc(-c3cn4cc(C)nc(C)c4n3)c(=O)oc2c1 [Compound 895, 7-[2-(diethylamino)ethoxy]-3-(6,8-dimethylimidazo[1,2-a]pyrazin-2-yl)-2H-chromen-2-one] | < 300 | ***** (fold increase >1.65) | 175 to 177 | < 0.1 | 
19 | CN1CCCN(c2ccc3cc(-c4cn5cc(C6CC6)cc(F)c5n4)c(=O)oc3c2)CC1 [Compound 499, 3-(6-cyclopropyl-8-fluoroimidazo[1,2-a]pyridin-2-yl)-7-(4-methyl-1,4-diazepan-1-yl)-2H-chromen-2-one] |  | * (maximum fold increase of ≤1.2) | 234 to 244 | 0.3 to 1 | 
20 | O=c1oc2cc(N3CCNCC3)ccc2cc1-c1nc2cc(F)ccc2[nH]1 [Compound 395, 3-(5-fluoro-1H-benzimidazol-2-yl)-7-(piperazin-1-yl)-2H-chromen-2-one] |  | * (maximum fold increase of ≤1.2) | 295 to 300 | 0.3 to 1 | 
21 | CCN(CC)Cc1ccc2cc(-c3nc4c(Cl)cccc4s3)c(=O)oc2c1 [Compound 58, 3-(4-chloro-1,3-benzothiazol-2-yl)-7-[(diethylamino)methyl]-2H-chromen-2-one] | 300 to 1000 | **** (fold increase between >1.5 and ≤1.65) | 147 to 151 | 1 to 3 | 
22 | O=C(Oc1ccc2cc(-c3nc4c(Cl)cccc4s3)c(=O)oc2c1)N1CCNCC1 [Cpd 42, 3-(4-chloro-1,3-benzothiazol-2-yl)-2-oxo-2H-chromen-7-yl piperazine-1-carboxylate] |  | * (maximum fold increase of ≤1.2) | 236 to 239 |  | 1 to 3
23 | Cc1cc2cc(-c3cc4ccc(N5CCNCC5)cc4oc3=O)oc2c(C)n1 [Cpd 723, 3-(5,7-dimethylfuro[2,3-c]pyridin-2-yl)-7-(piperazin-1-yl)-2H-chromen-2-one] | < 300 | ***** (fold increase >1.65) | 218 to 220 | < 0.1 | 

— patent USRE47689E1, “Compounds for treating spinal muscular atrophy” (PTC Therapeutics, Inc., priority 2011, dated 2019)
